Test results from article PMC10108392, “Rimonabant-Based Compounds Bearing Hydrophobic Amino Acid Derivatives as Cannabinoid Receptor Subtype 1 Ligands” (ACS Medicinal Chemistry Letters, 2023).

What was measured:
CB1R [1] = target: T1, CB1R (Rattus norvegicus, UniProt P20272); experiment: [3H]WIN55,212-2 radioligand competition binding assay in rat brain membrane homogenate; conditions: for Ki: read-out: Ki [3H]WIN55,212-2 binding, 5 nM [3H]WIN55,212-2, ± SEM, n.b. = no binding of ligands was observed; for Ki [3H]WIN55,212-2 binding: 5 nM [3H]WIN55,212-2, ± SEM, n.b. = no binding of ligands was observed
T1 construct: Crude membrane fractions were prepared from the brain; from tissue; host or cells: Wistar rat whole brain, crude membrane fraction
T1 sequence (P20272 whole entry): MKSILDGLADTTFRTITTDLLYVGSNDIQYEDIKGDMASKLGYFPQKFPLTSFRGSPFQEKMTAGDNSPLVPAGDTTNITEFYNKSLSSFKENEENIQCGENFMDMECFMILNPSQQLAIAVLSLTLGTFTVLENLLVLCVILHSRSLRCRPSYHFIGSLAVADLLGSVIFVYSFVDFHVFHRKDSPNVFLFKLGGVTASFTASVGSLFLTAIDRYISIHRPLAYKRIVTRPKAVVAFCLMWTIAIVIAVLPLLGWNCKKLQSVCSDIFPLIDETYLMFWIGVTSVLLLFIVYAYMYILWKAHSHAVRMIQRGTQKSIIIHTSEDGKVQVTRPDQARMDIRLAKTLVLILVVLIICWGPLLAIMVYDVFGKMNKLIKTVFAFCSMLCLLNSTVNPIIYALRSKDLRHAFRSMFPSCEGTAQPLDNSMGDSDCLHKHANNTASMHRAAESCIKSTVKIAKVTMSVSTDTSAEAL
Experimental: (§1) Our novel chemical compounds were tested in vitro for their binding ability, efficacy, and potency on CB1R in rat brain membrane homogenate (Table 2 and SI, Figure S1). CB1Rs are the most abundant G-protein coupled receptors in the rodent and mammalian brain; therefore, this is an appropriate model to characterize our ligands in a more physiological system.
(§2) In Vitro Biological Assays
(§3) Preparation of Brain Membrane Homogenates
(§4) Wistar rats were locally bred and handled according to the EU Directive 2010/63/EU and to the Regulations on Animal Protection (40/2013. (II. 14.) Korm. r.) of Hungary. Crude membrane fractions were prepared from the brain. Brains were quickly removed from the euthanized rats and directly put in an ice-cold 50 mM Tris-HCl buffer (pH 7.4). The collected tissue was then homogenized in 30 volumes (v/w) of an ice-cold buffer with a Braun Teflon-glass homogenizer at the highest rpm. The homogenate was centrifuged at 20,000 × g for 25 min, and the resulting pellet was suspended in the same volume of a cold buffer followed by incubation at 37 °C for 30 min to remove endogenous ligands. Centrifugation was then repeated. The final pellets were taken up in five volumes of a 50 mM Tris-HCl (pH 7.4) buffer containing 0.32 M sucrose and stored at -80 °C. Prior to the experiment, aliquots were thawed and centrifuged at 20,000 ×g for 25 min and then they were resuspended in 50 mM Tris-HCl (pH 7.4), homogenized with a Douncer, followed by the determination of the protein concentration by the method of Bradford. The membrane suspensions were immediately used either in radioligand binding experiments or in [35S]GTPγS functional assays.
Radioligand Competition Binding Assay
Binding experiments were performed at 30 °C for 60 min in a 50 mM Tris-HCl binding buffer (pH 7.4) containing 2.5 mM of EGTA, 5 mM of MgCl2 and 0.5 mg/mL of fatty acid-free BSA in plastic tubes in a total assay volume of 1 mL that contained 0.3-0.5 mg/mL of a membrane protein. Competition binding […]
ligands. […] The incubation […]
was terminated by diluting the samples with an ice-cold wash buffer (50 mM of Tris-HCl, 2.5 mM of EGTA, 5 mM of MgCl2, 0.5% fatty acid free BSA, pH 7.4), followed by repeated washing and rapid filtration through Whatman GF/B glass fiber filters (Whatman Ltd., Maidstone, UK) pre-soaked with 0.1% polyethyleneimine (30 min before the filtration). Filtration was performed with a 24-well Brandel Cell Harvester (Gaithersburg, MD, USA). Filters were air-dried and immersed into Ultima Gold MV scintillation cocktail, and then radioactivity was measured with a TRI-CARB 2100TR liquid scintillation analyzer (Packard, Perkin Elmer, Waltham, MA, USA). […]
The results of the competition binding studies are reported as means ± S.E.M. of at least three independent experiments each performed in duplicate. In competition binding studies, the inhibitory constants (Ki) were calculated from the inflection points of the displacement curves using non-linear least-square curve fitting and the Cheng-Prusoff equation, Ki= […]/(1 + [ligand]/Kd). […]

CB1R [2] = target: T1, CB1R; experiment: Ligand stimulated [35S]GTPγS binding assay in rat brain membranes; type: biochemical; conditions: for CB1R functional profile (agonist / antagonist / inverse agonist): from [35S]GTPγS binding; for CB1R functional profile (agonist / antagonist / inverse agonist) / EC50: rat brain membranes; for EC50: ± SEM, read-out: [35S]GTPγS stimulation EC50; for Emax: read-out: [35S]GTPγS stimulation Emax
Experimental: as §1, §2, §3
as §4, with “assays. […]” for “assays.”
was terminated by diluting the samples with an ice-cold wash buffer (50 mM of Tris-HCl, 2.5 mM of EGTA, 5 mM of MgCl2, 0.5% fatty acid free BSA, pH 7.4), followed by repeated washing and rapid filtration through Whatman GF/B glass fiber filters (Whatman Ltd., Maidstone, UK) pre-soaked with 0.1% polyethyleneimine (30 min before the filtration). Filtration was performed with a 24-well Brandel Cell Harvester (Gaithersburg, MD, USA). Filters were air-dried and immersed into Ultima Gold MV scintillation cocktail, and then radioactivity was measured with a TRI-CARB 2100TR liquid scintillation analyzer (Packard, Perkin Elmer, Waltham, MA, USA).
Ligand Stimulated [35S]GTPγS Binding Assay
Rat brain membranes (30 µg protein/tube), prepared as described above, were incubated with 0.05 nM of […]
mM of NaCl, 3 mM of MgCl2 and 1 mM of EGTA in a 50 mM Tris-HCl buffer (pH 7.4) for 60 min at 30 °C. Basal [35S]GTPγS binding was measured in the absence of ligands and set as 100%. Nonspecific […]
binding was determined by the addition of 10 µM unlabelled GTPγS and subtracted from total binding.
Incubation, filtration and radioactivity measurements of the samples were carried out as described above. […]
All […]
data and curves were analyzed by GraphPad Prism 5.0 (San Diego, CA, USA).

Structure (SMILES)	Ki (CB1R [1])	CB1R functional profile (agonist / antagonist / inverse agonist) (CB1R [2])	EC50 (CB1R [2])	Ki [3H]WIN55,212-2 binding (CB1R [1])	Emax (CB1R [2])
CNC(=O)[C@@H](NC(=O)c1nn(-c2ccc(Cl)cc2)c(-n2cccc2)c1C)C(C)C [Compound 33, RS2691-Val-NHCH3]	168 ± 16 nM	antagonists			
CC(C)(C)[C@H](NC(=O)c1cc(-n2cccc2)n(-c2ccccc2)n1)C(N)=O [Compound 16, RS2708-tLeu-NH2]	1470 ± 103 nM		295 ± 38 nM		
CC(C)[C@H](NC(=O)c1cc(-n2cccc2)n(-c2ccccc2)n1)C(N)=O [Compound 15, RS2708-Val-NH2]			1230 ± 121 nM	n.b.	
Cc1c(C(=O)N[C@H](C(=O)O)C(C)C)nn(-c2ccc(Cl)cc2Cl)c1-n1cccc1Cl [Compound 9, RS3516-Val-OH]			3430 ± 283 nM	n.b.	
CNC(=O)[C@@H](NC(=O)c1cc(-n2cccc2)n(-c2ccc(Cl)cc2)n1)C(C)(C)C [Compound 32, RS2689-tLeu-NHCH3]	42 ± 2.9 nM	agonist	389 ± 51 nM		120 ± 2%
Cc1c(C(=O)N[C@H](C(N)=O)C(C)C)nn(-c2ccccc2)c1-n1cccc1 [Compound 17, RS2709-Val-NH2]	1060 ± 72 nM		4240 ± 377 nM		
CNC(=O)[C@@H](NC(=O)c1cc(-n2cccc2)n(-c2ccc(Cl)cc2)n1)C(C)C [Compound 31, RS2689-Val-NHCH3]	387 ± 33 nM	weak inverse agonist	601 ± 21 nM	modest affinity	
CNC(=O)[C@@H](NC(=O)c1cc(-n2cccc2)n(-c2ccccc2)n1)C(C)(C)C [Compound 36, RS2708-tLeu-NHCH3]	616 ± 16 nM	antagonists			
CNC(=O)[C@@H](NC(=O)c1nn(-c2ccccc2)c(-n2cccc2)c1C)C(C)(C)C [Compound 38, RS2709-tLeu-NHCH3]	42 ± 3.9 nM	antagonists			102 ± 2%
COC(=O)[C@@H](NC(=O)c1cc(-n2cccc2)n(-c2ccccc2)n1)C(C)C [Compound 25, RS2708-Val-OCH3]	1360 ± 16 nM		468 ± 22 nM		
CNC(=O)[C@@H](NC(=O)c1nn(-c2ccc(Cl)cc2Cl)c(-n2cccc2Cl)c1C)C(C)C [Compound 39, RS3516-Val-NHCH3]	185 ± 17 nM	weak inverse agonist	3540 ± 193 nM	modest affinity	
CC(C)(C)[C@H](NC(=O)c1cc(-n2cccc2)n(-c2ccc(Cl)cc2)n1)C(N)=O [Compound 12, RS2689-tLeu-NH2]	102 ± 16 nM				
Cc1c(C(=O)N[C@H](C(=O)O)C(C)(C)C)nn(-c2ccc(Cl)cc2Cl)c1-n1cccc1Cl [Compound 10, RS3516-tLeu-OH]			1650 ± 98 nM	n.b.	
CNC(=O)[C@@H](NC(=O)c1nn(-c2ccccc2)c(-n2cccc2)c1C)C(C)C [Compound 37, RS2709-Val-NHCH3]	1060 ± 85 nM	weak inverse agonist	7080 ± 398 nM	modest affinity	55 ± 9%
CC(C)[C@H](NC(=O)c1cc(-n2cccc2)n(-c2ccc(Cl)cc2)n1)C(N)=O [Compound 11, RS2689-Val-NH2]	341 ± 19 nM		1160 ± 79 nM		
CC(C)[C@H](NC(=O)c1cc(-n2cccc2)n(-c2ccccc2)n1)C(=O)O [Compound 5, RS2708-Val-OH]			1650 ± 75 nM	n.b.	
Cc1c(C(=O)N[C@H](C(=O)O)C(C)C)nn(-c2ccc(Cl)cc2)c1-n1cccc1 [Compound 3, RS2691-Val-OH]			> 10000 nM	n.b.	
CNC(=O)[C@@H](NC(=O)c1cc(-n2cccc2)n(-c2ccccc2)n1)C(C)C [Compound 35, RS2708-Val-NHCH3]	7940 ± 266 nM	weak inverse agonist	2460 ± 240 nM	modest affinity	
Cc1c(C(=O)N[C@H](C(=O)O)C(C)C)nn(-c2ccccc2)c1-n1cccc1 [Compound 7, RS2709-Val-OH]			2550 ± 106 nM	n.b.	
COC(=O)[C@@H](NC(=O)c1nn(-c2ccccc2)c(-n2cccc2)c1C)C(C)(C)C [Compound 28, RS2709-tLeu-OCH3]	369 ± 19 nM		1030 ± 117 nM		55 ± 5%
COC(=O)[C@@H](NC(=O)c1nn(-c2ccccc2)c(-n2cccc2)c1C)C(C)C [Compound 27, RS2709-Val-OCH3]	449 ± 15 nM		2080 ± 129 nM		
CC(C)(C)[C@H](NC(=O)c1cc(-n2cccc2)n(-c2ccccc2)n1)C(=O)O [Compound 6, RS2708-tLeu-OH]			2450 ± 118 nM	n.b.	
COC(=O)[C@@H](NC(=O)c1nn(-c2ccc(Cl)cc2)c(-n2cccc2)c1C)C(C)C [Compound 23, RS2691-Val-OCH3]	55 ± 5.2 nM		4870 ± 225 nM		
Cc1c(C(=O)N[C@H](C(N)=O)C(C)C)nn(-c2ccc(Cl)cc2)c1-n1cccc1 [Compound 13, RS2691-Val-NH2]	123 ± 13 nM				
Cc1c(C(=O)N[C@H](C(=O)O)C(C)(C)C)nn(-c2ccccc2)c1-n1cccc1 [Compound 8, RS2709-tLeu-OH]			3400 ± 118 nM	n.b.	
